Columns and labels:
NS3 = NS3 (Hepatitis C virus, UniProt A3EZJ3); test: Inhibitory activity against HCV NS3 protease; design: species or system Hepacivirus hominis
Hepatitis C virus = test: Inhibition of HCV replication in a cellular replicon assay; format: functional, organism-based, Hepacivirus hominis
Neutrophil elastase = target: T1, Neutrophil elastase (Homo sapiens, UniProt P08246); test: Inhibitory activity against HNE; settings: read-out: Ki app
T1 sequence (P08246 whole entry): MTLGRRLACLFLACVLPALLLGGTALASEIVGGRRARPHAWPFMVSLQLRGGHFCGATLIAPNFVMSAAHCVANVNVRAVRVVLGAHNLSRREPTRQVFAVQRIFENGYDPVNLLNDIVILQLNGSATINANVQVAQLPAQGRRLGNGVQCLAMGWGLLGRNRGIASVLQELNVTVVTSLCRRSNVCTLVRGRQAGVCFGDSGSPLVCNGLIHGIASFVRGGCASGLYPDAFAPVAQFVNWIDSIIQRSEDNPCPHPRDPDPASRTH

[1] = Selectivity for HNE over HCV NS3 protease

Chain of NS3 (A3EZJ3 whole entry): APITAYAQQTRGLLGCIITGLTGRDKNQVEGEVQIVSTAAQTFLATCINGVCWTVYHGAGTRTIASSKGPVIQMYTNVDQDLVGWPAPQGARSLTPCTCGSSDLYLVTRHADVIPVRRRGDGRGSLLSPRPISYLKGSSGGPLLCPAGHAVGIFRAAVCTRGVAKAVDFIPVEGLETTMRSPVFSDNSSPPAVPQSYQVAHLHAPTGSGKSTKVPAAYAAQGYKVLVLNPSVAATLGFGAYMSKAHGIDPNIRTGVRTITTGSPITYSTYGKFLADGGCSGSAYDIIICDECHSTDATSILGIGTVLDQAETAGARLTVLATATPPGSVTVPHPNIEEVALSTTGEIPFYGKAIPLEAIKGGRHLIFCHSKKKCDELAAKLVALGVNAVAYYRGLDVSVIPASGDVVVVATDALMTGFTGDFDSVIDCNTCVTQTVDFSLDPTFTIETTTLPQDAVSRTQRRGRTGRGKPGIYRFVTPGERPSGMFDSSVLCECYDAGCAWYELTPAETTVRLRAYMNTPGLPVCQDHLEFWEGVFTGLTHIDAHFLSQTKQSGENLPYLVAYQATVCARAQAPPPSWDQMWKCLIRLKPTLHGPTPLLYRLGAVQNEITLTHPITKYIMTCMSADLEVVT

Compound | Ki (NS3; read-out: Ki app) [nM] | also measured
CN(C)C(=O)[C@@H](NC(=O)CNC(=O)C(=O)C(CC1CCC1)NC(=O)[C@@H]1C2CCC(C2)N1C(=O)[C@@H](NC(=O)NC(C)(C)C)C1CCCCC1)c1ccccc1 (some centres undefined) | 21 | –
CCCC(NC(=O)[C@@H]1C2CCC(C2)N1C(=O)[C@@H](NC(=O)OC(C)(C)C)C1CCCCC1)C(=O)C(=O)NCC(=O)N[C@H](C(=O)N(C)C)c1ccccc1 (some centres undefined) | 90 | –
CN(C)C(=O)[C@@H](NC(=O)CNC(=O)C(=O)C(CC1CCC1)NC(=O)[C@@H]1C2CCC(C2)N1C(=O)[C@@H](NC(=O)NC(C)(C)C)C(C)(C)C)c1ccccc1 (some centres undefined) | 13 | EC50 (Hepatitis C virus): 2000 nM; Ki (Neutrophil elastase): 5300 nM
CN(C)C(=O)[C@@H](NC(=O)CNC(=O)C(=O)C(CC1CC1)NC(=O)[C@@H]1C2CCC(C2)N1C(=O)[C@@H](NC(=O)NC(C)(C)C)C(C)(C)C)c1ccccc1 (some centres undefined) | 10 | Ratio Ki(app) [1]: 35; Ki (Neutrophil elastase): 340 nM
CN(C)C(=O)[C@@H](NC(=O)CNC(=O)C(=O)C(CC1CCC1)NC(=O)[C@@H]1C2CCC(C2)N1C(=O)[C@@H](NC(=O)OC(C)(C)C)C1CCCCC1)c1ccccc1 (some centres undefined) | 51 | –
CCCCC(NC(=O)[C@@H]1C2CC([C@H]3C[C@@H]23)N1C(=O)[C@@H](NC(=O)C(C)(C)C)C1CCCCC1)C(=O)C(=O)NCC(=O)N[C@H](C(=O)N(C)C)c1ccccc1 (some centres undefined) | 27 | –
CC(C)CC(NC(=O)[C@@H]1C2CCC(C2)N1C(=O)[C@@H](NC(=O)OC(C)(C)C)C1CCCCC1)C(=O)C(=O)NCC(=O)N[C@H](C(=O)N(C)C)c1ccccc1 (some centres undefined) | – | Ki (NS3; read-out: Ki): 53 nM
CN(C)C(=O)[C@@H](NC(=O)CNC(=O)C(=O)C(CC1CCC1)NC(=O)[C@@H]1C2CCC(C2)N1C(=O)[C@@H](NC(=O)OC(C)(C)C)C(C)(C)C)c1ccccc1 (some centres undefined) | 27 | –
CN(C)C(=O)[C@@H](NC(=O)CNC(=O)C(=O)C(CC1CC1)NC(=O)[C@@H]1C2CCC(C2)N1C(=O)[C@@H](NC(=O)NC(C)(C)C)C1CCCCC1)c1ccccc1 (some centres undefined) | – | Ki (NS3; read-out: Ki): 19 nM
CCCCC(NC(=O)[C@@H]1C2CCC(C2)N1C(=O)[C@@H](NC(=O)OC(C)(C)C)C1CCCCC1)C(=O)C(=O)NCC(=O)N[C@H](C(=O)N(C)C)c1ccccc1 (some centres undefined) | – | EC50 (Hepatitis C virus): 600 nM
CCCC(NC(=O)[C@@H]1C2CC([C@H]3C[C@@H]23)N1C(=O)[C@@H](NC(=O)C(C)(C)C)C1CCCCC1)C(=O)C(=O)NCC(=O)N[C@H](C(=O)N(C)C)c1ccccc1 (some centres undefined) | 90 | –
CC(C)CC(NC(=O)[C@@H]1C2CCC(C2)N1C(=O)[C@@H](NC(=O)OC(C)(C)C)C(C)(C)C)C(=O)C(=O)NCC(=O)N[C@H](C(=O)N(C)C)c1ccccc1 (some centres undefined) | 40 | –
CN(C)C(=O)[C@@H](NC(=O)CNC(=O)C(=O)C(CC1CC1)NC(=O)[C@@H]1C2CCC(C2)N1C(=O)[C@@H](NC(=O)OC(C)(C)C)C1CCCCC1)c1ccccc1 (some centres undefined) | 20 | –

Second part, led by results:

Ki (NS3; read-out: Ki app) [nM] | Compound | also measured
3800 | CCCC(NC(=O)[C@@H]1C2CCC(C2)N1C(=O)[C@@H](NC(=O)OC(C)(C)C)C(C)(C)C)C(=O)C(=O)NCC(=O)O (some centres undefined) | –
19 | CN(C)C(=O)[C@@H](NC(=O)CNC(=O)C(=O)C(CC1CC1)NC(=O)[C@@H]1C2CCC(C2)N1C(=O)[C@@H](NC(=O)OC(C)(C)C)C(C)(C)C)c1ccccc1 (some centres undefined) | –
6900 | CCCC(NC(=O)[C@@H]1C2CCC(C2)N1C(=O)[C@@H](NC(=O)OC(C)(C)C)C(C)(C)C)C(=O)C(N)=O (some centres undefined) | –
81 | CCCCC(NC(=O)[C@@H]1C2CCC(C2)N1C(=O)[C@@H](NC(=O)OC(C)(C)C)C(C)(C)C)C(=O)C(=O)NCC(=O)N[C@H](C(=O)N(C)C)c1ccccc1 (some centres undefined) | –
5500 | C=CCNC(=O)C(=O)C(CCC)NC(=O)[C@@H]1C2CCC(C2)N1C(=O)[C@@H](NC(=O)OC(C)(C)C)C(C)(C)C (some centres undefined) | –
1500 | CCCC(NC(=O)[C@@H]1C2CCC(C2)N1C(=O)[C@@H](NC(=O)OC(C)(C)C)C(C)(C)C)C(=O)C(=O)NCC(=O)OCc1ccccc1 (some centres undefined) | –
110 | CCCC(NC(=O)[C@@H]1C2CCC(C2)N1C(=O)[C@@H](NC(=O)OC(C)(C)C)C(C)(C)C)C(=O)C(=O)NCC(=O)N[C@H](C(=O)N(C)C)c1ccccc1 (some centres undefined) | –

Source: ChEMBL document CHEMBL1146051, “Novel inhibitors of hepatitis C NS3-NS4A serine protease derived from 2-aza-bicyclo[2.2.1]heptane-3-carboxylic acid” (Bioorg Med Chem Lett, 2006)
